Literature values, collected in patent US20030175329A1, “Semisolid topical hormonal compositions and methods for treatment” (Cellegy Pharmaceuticals, Inc., priority 2001, published 2003).

How the values were obtained:
[1] = 6 months
healthy males = settings: 200 mg IM weekly
hypogonadal males = settings: oral doses for at least 60 days; 23 hypogonadal males

## C[C@]12CC[C@H]3[C@@H](CCC4=CC(=O)CC[C@@]43C)[C@@H]1CC[C@@H]2O [Testosterone, testosterone]
Following IM injection
  dose excreted in urine as glucuronide and sulfate conjugates of testosterone and its metabolites: about 90%
In vivo
  excreted mostly unconjugated in the feces: About 6%

## CCCCCCC(=O)O[C@H]1CC[C@H]2[C@@H]3CCC4=CC(=O)CC[C@]4(C)[C@H]3CC[C@]12C [testosterone enanthate]
[1]
  serum BT levels maintained within the normal range throughout the dosing interval: 39%
  serum DHT levels maintained within the normal range throughout the dosing interval: 70%
  serum E2 levels maintained within the normal range throughout the dosing interval: 35%
  serum T levels maintained within the normal range throughout the dosing interval: 72%
Healthy males
  decrease of high-density lipoprotein cholesterol: 14-18%

## CCCCCCCCCCC(=O)O[C@H]1CC[C@H]2[C@@H]3CCC4=CC(=O)CC[C@]4(C)[C@H]3CC[C@]12C [testosterone undecanoate]
Hypogonadal males
  men with measurable improvement in sexual attitudes and performance: 61%
